Measurements from patent US20190201430A1, “TREATING OCULAR NEOVASCULARIZATION” (Massachusetts Eye and Ear Infirmary, priority 2014, published 2019).

Experiments:
PTEN = assay: Western blotting of PTEN phosphorylation in HUVECs; format: cell-based, human; settings: AICAR 2 mM, presence or absence of VEGF; FIG. 9A,D
Description: (§1) Human umbilical vein endothelial cells (HUVECs) were cultured in endothelial growth medium (EGM, Lonza, Walkersville, Md.). Normal human dermal fibroblasts (NHDFs) were cultured in fibroblast basal medium (ATCC, Rockville, Md.). Cells were grown at 37° C. in a humidified atmosphere of 95% air, 5% CO2. Experiments were performed on cells below passage 3 to 6 grown to 80%-90% confluence.
(§2) Protein extraction and Western blotting were carried out as described previously (Morizane et al. JBC (26)). We conducted a densitometric analysis of bands using ImageJ software. Lane-loading differences were normalized by β-actin.

caveolin-1 = assay: Western blotting of VEGF induced caveolin-1 phosphorylation in HUVECs; format: cell-based, human; settings: AICAR 2 mM 2 h
Description: as §1, §2
(§3) Cells were transfected with siRNAs using a Nucleofection kit (Amaxa Biosystems, Gaithersburg, Md.), following the manufacturer's protocol. The medium was changed 6 h after transfection. The down-regulation of each protein was evaluated 3 days after nucleofection.

HUVEC monolayer = assay: In vitro vascular permeability assay (Alexa 555-BSA leakage); format: cell-based, human; settings: AICAR 2 mM 2 h, VEGF 12.5 ng/mL 10 min; FIG. 10A
Description: We conducted the in vitro vascular permeability assay using Alexa Flour 555-labeled bovine serum albumin (BSA) (Invitrogen) and an In Vitro Vascular Permeability Assay kit (Millipore). According to the manufacturer's instructions, HUVECs were seeded at a density of 1×10^5 on a collagen-coated polystyrene filter. After a confluent monolayer was formed, each chamber was treated with AICAR or stimulated with VEGF. To measure endothelial permeability, 100 μL of Alexa Flour 555-BSA solution (0.050 mg/mL) was added into the insert and incubated for 10 min, and then the insert was removed and 100 μL medium was collected from the bottom chamber.
The fluorescent density of samples was analyzed on a SPECTRAmax GEMINI XS Microplate Spectrofluorometer (Molecular Devices, Sunnyvale, Calif.) at excitation and emission wavelengths of 555 nm and 565 nm, respectively.

HUVEC = assay: Albumin endocytosis assay under H2O2 (Alexa555-BSA, confocal); format: cell-based, human; settings: AICAR 2 mM 2 h, then H2O2 2 mM 30 min, FIG. 1D
Description: After serum starvation for overnight, HUVECs were pretreated with AICAR (2 mM) for 2 h, and then stimulated with H2O2 (2 mM) for 30 min. We added BSA conjugated with Alexa 555 (50 μg/ml, Life Technologies, Gaithersburg, Md.) in the medium during the experiment. Cells on coverslips were washed three times with cold TBS and fixed in 100% methanol at −20° C. for 15 min. Cells were then permeabilized in 0.3% Triton X-100, 0.15% BSA in TBS with 0.05% Tween 20 (TBST) for 15 min at room temperature and blocked with 0.5% skim milk in TBST for 60 min at room temperature. Cells were incubated in p-caveolin-1 antibody diluted 1:200 and VE-cadherin antibody diluted 1:400 for overnight at 4° C., and then incubated for 2 h in secondary antibody diluted 1:300. Cells were then rinsed three times in TBST before mounting in Toto3 (Life Technologies, Gaithersburg, Md.). Images were acquired with confocal microscope, Leica TCS SP2 spectral confocal laser scanning microscope (Leica Microsystems, Wetzlar, Germany).

prdx1/c-Abl complex [1] = assay: Co-immunoprecipitation of prdx1 and c-Abl under VEGF; format: cell-based, human; settings: AICAR 2 mM 2 h, VEGF 12.5 ng/mL 10 min
Description: (§4) Immunoprecipitation was performed with the Universal Magnetic Co-IP Kit (Active Motif North America, Carlsbad, Calif.) according to the manufacturer's instruction.
as §3

prdx1/c-Abl complex [2] = assay: Co-immunoprecipitation of prdx1 and c-Abl under H2O2; format: cell-based, human; settings: AICAR 2 mM 2 h, H2O2 2 mM 30 min
Description: Immunoprecipitation was performed with the Universal Magnetic Co-IP Kit (Active Motif North America, Carlsbad, Calif.), according to the manufacturer's instruction.
Cells were transfected with siRNAs using Nucleofection kit (Amaxa Biosysteins, Gaithersburg, Md.), following the manufacturer's protocol. The medium was changed at 6 h after transfection. The down-regulation of each protein was evaluated at 3 days after nucleofection.

VEGFR2/caveolin-1 = assay: Immunoprecipitation of VEGFR2 with caveolin-1 under VEGF; format: cell-based, human; settings: AICAR 2 mM 2 h, VEGF 12.5 ng/mL 10 min; FIG. 8F,G
Description: as §4

endothelial cells = settings: in the absence of VEGF; cited from earlier work
[3] = test system: retinoblastoma xenografts; settings: AICAR-treated retinoblastoma xenografts; cited from earlier work
[4] = test system: HUVECs cocultured with NHDFs; assay: In vitro angiogenesis (tube formation) assay; format: cell-based, human; settings: AICAR 0.25, 0.5, 1.0, 2.0 mM; VEGF 12.5 ng/mL; FIG. 8A,B
Description: To evaluate the effects of AICAR on angiogenesis, HUVECs were cocultured with NHDFs in a 24-well plate with or without VEGF and AICAR. NHDF cells were seeded at 1.0×10^5 cells/well and then cultured for 2 wks to form a fibroblast cell sheet. […] Suramin (50 μM) was used as the inhibitor of VEGF. At 3, 7 and 10 days after treatment, cells were fixed at −20° C. in ethanol and acetone (1:1). Subsequently, cells were blocked with 1% bovine serum albumin (BSA) in phosphate-buffered saline for 30 min at room temperature, and then incubated with primary rabbit anti-human CD31 antibody overnight at 4° C. After the cells were washed with Tris-buffered saline (TBS), Alexa Flour 488 goat anti-rabbit IgG was applied for 2 h at room temperature. The tube length was quantified using a Kurabo Angiogenesis Image Analyzer (imaging software; Kurabo, Osaka, Japan).

Akt = assay: Western blotting of Akt phosphorylation in HUVECs (VEGF); format: cell-based, human
Description: as §1, §2, §3

c-Abl = assay: Western blotting of VEGF induced c-Abl phosphorylation in HUVECs; format: cell-based, human; settings: AICAR 2 mM 2 h
Description: as §1, §2, §3

[5] = AMPKα1 or α2 siRNA, VEGF 12.5 ng/mL 10 min, FIG. 13

NC(=O)c1ncn([C@@H]2O[C@H](CO)[C@@H](O)[C@H]2O)c1N [AICAR, 5-Aminoimidazole-4-carboxamide riboside]
PTEN phosphorylation on AICAR treatment (time course) (PTEN): resulted in AMPK and PTEN phosphorylation | VEGF induced phosphorylation of caveolin-1 (caveolin-1; VEGF 12.5 ng/mL 0 to 60 min, FIG. 11A,C): significantly suppressed | inhibitory effect of AICAR on VEGF-induced caveolin-1 phosphorylation after knockdown of either AMPKα isoform (caveolin-1; [5]): abolished | inhibitory effect of AICAR on VEGF-induced caveolin-1 phosphorylation in cells lacking prdx1 (caveolin-1; prdx1 siRNA, VEGF 12.5 ng/mL 10 min, FIG. 15A,C): abolished | VEGF-induced albumin leakage (HUVEC monolayer): significantly suppressed | H2O2 induced albumin endocytosis (HUVEC): suppressed | caveolin-1 phosphorylation (immunofluorescence) in albumin endocytosis assay (HUVEC): suppressed | VEGF induced dissociation between prdx1 and c-Abl (prdx1/c-Abl complex [1]; FIG. 15D): inhibited | ability of AICAR to inhibit VEGF induced prdx1/c-Abl dissociation after knockdown of AMPKα1 or α2 (prdx1/c-Abl complex [1]; AMPKα1 or α2 siRNA, FIG. 15F,G): decreased | H2O2 induced dissociation between prdx1 and c-Abl (prdx1/c-Abl complex [2]; FIG. 6D): inhibited | inhibitory effect of AICAR on dissociation between c-Abl and prdx1 after deletion of AMPKα1 or α2 (prdx1/c-Abl complex [2]; AMPKα1 or α2 siRNA HUVEC, FIG. 6F,G): decreased | VEGFR2 dissociation from caveolin-1 upon VEGF stimulation (VEGFR2/caveolin-1): no effect | endothelial proliferation (endothelial cells): suppressed endothelial proliferation | tumor vessel formation [3]: decrease in tumor vessel formation | VEGF-induced vascular tube formation (tube length) [4]: dose-dependent inhibition | VEGF induced Akt phosphorylation (Akt; AICAR 2 mM 2 h, VEGF 12.5 ng/mL 0 to 60 min, FIG. 8C,E): significantly suppressed and delayed | Akt phosphorylation state on AICAR treatment (time course) (Akt; AICAR 2 mM, presence or absence of VEGF, FIG. 9A,C): Akt dephosphorylation | inhibitory effect of AICAR on VEGF-induced Akt phosphorylation after knockdown of either AMPKα isoform (Akt; AMPKα1 or α2 siRNA, AICAR 2 mM 2 h, VEGF 12.5 ng/mL 10 min, FIG. 13): abolished | effects of AICAR on Akt dephosphorylation after PTEN knockdown (Akt; PTEN siRNA, AICAR 2 mM 2 h, VEGF 12.5 ng/mL 10 min, FIG. 9E,F): abrogated | VEGF induced phosphorylation of c-Abl (c-Abl; VEGF 12.5 ng/mL 0 to 60 min, FIG. 11A,B): significantly suppressed | inhibitory effect of AICAR on VEGF-induced c-Abl phosphorylation after knockdown of either AMPKα isoform (c-Abl; [5]): abolished | inhibitory effect of AICAR on VEGF-induced c-Abl phosphorylation in cells lacking prdx1 (c-Abl; prdx1 siRNA, VEGF 12.5 ng/mL 10 min, FIG. 15A,B): abolished
